Results from ChEMBL document CHEMBL5465560, “Selectivity Literature for EUbOPEN Chemogenomic Library” (2024).
Each block holds one compound with its values, some of them ahead of it.

Assays:
[1] = biological target: Mitogen-activated protein kinase 10 (Homo sapiens, UniProt P53779); assay: Selectivity interaction (Kinase panel (Invitrogen)) EUB0000639a MAPK10; details: at 200 nM
[2] = biological target: Cyclin-dependent kinase 4 (Homo sapiens, UniProt P11802); assay: Selectivity interaction (Kinase panel (33PanQinase(R) Activity Assay)) EUB0000877a CDK4
Cyclin-dependent kinase 4, sequence (P11802 whole entry): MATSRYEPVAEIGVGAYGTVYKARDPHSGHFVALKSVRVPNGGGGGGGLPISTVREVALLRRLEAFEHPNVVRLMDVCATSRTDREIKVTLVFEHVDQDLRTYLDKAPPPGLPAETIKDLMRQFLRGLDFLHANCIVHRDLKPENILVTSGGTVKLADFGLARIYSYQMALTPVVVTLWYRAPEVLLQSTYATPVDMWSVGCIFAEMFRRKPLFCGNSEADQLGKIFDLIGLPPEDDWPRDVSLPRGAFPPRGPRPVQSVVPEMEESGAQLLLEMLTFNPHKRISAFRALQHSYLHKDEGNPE

[3] = biological target: T1, Histone-lysine N-methyltransferase EHMT2 (Homo sapiens) (UniProt Q96KQ7); assay: Selectivity interaction (Methyltransferase screen (radiometric assays, panel of 8 PRMTs, 21 protein lysine methyltransferases, 3 DNA methyltransferases, and one RNA methyltransferase)) EUB0000272b EHMT2
T1 sequence (whole entry): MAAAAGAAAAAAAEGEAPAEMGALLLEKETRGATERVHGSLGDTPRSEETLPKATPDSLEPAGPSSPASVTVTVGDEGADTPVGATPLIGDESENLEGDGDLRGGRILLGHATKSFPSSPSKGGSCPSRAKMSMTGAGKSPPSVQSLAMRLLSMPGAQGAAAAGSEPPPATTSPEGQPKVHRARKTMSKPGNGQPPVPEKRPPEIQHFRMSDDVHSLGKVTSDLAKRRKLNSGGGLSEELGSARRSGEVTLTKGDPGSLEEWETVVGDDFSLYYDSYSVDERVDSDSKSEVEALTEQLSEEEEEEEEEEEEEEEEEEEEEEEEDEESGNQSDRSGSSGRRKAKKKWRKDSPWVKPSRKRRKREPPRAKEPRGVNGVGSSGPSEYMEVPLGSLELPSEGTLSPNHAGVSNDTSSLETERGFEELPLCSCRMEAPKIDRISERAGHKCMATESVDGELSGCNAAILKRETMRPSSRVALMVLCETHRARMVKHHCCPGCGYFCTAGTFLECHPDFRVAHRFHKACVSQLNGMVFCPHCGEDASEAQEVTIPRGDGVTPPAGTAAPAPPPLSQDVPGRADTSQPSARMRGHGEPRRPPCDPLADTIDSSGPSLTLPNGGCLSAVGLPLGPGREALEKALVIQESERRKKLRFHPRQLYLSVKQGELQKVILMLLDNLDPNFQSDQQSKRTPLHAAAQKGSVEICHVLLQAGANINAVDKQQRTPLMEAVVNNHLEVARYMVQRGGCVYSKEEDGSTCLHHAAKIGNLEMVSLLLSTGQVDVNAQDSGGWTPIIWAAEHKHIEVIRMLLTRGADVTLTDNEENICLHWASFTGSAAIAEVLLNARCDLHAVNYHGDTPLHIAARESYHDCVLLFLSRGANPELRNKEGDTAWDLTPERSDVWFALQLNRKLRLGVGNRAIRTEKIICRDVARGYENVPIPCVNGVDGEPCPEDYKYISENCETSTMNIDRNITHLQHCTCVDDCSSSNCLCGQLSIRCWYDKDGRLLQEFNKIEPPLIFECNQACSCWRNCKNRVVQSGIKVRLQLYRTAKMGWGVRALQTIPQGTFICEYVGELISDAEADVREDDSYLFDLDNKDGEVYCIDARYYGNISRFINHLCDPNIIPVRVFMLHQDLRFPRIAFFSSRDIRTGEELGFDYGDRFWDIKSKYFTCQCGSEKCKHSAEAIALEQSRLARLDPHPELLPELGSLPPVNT

[4] = biological target: Dual specificity protein kinase CLK4 (Homo sapiens, UniProt Q9HAZ1); assay: Selectivity interaction (KinomeScan (DiscoverX)) EUB0000595a CLK4; details: at 10 µM
Dual specificity protein kinase CLK4, sequence (Q9HAZ1 whole entry, looked up): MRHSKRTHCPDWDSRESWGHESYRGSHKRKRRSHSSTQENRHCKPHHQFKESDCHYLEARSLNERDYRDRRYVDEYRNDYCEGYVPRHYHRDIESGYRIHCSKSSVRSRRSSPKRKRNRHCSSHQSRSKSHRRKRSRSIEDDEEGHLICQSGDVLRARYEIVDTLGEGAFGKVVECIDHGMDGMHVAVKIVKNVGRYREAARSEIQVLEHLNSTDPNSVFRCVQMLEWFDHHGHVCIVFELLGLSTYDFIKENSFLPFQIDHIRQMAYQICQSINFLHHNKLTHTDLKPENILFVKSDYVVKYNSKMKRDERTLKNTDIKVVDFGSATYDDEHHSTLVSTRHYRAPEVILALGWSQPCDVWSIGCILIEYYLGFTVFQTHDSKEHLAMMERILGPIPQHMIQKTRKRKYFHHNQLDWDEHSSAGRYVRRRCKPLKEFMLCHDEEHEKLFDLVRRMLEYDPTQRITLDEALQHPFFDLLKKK

[5] = biological target: T2, Muscle, skeletal receptor tyrosine-protein kinase (Homo sapiens) (UniProt O15146); assay: Selectivity interaction (KinomeScan (DiscoverX)) EUB0000229b MUSK; details: at 10 µM
T2 sequence (whole entry): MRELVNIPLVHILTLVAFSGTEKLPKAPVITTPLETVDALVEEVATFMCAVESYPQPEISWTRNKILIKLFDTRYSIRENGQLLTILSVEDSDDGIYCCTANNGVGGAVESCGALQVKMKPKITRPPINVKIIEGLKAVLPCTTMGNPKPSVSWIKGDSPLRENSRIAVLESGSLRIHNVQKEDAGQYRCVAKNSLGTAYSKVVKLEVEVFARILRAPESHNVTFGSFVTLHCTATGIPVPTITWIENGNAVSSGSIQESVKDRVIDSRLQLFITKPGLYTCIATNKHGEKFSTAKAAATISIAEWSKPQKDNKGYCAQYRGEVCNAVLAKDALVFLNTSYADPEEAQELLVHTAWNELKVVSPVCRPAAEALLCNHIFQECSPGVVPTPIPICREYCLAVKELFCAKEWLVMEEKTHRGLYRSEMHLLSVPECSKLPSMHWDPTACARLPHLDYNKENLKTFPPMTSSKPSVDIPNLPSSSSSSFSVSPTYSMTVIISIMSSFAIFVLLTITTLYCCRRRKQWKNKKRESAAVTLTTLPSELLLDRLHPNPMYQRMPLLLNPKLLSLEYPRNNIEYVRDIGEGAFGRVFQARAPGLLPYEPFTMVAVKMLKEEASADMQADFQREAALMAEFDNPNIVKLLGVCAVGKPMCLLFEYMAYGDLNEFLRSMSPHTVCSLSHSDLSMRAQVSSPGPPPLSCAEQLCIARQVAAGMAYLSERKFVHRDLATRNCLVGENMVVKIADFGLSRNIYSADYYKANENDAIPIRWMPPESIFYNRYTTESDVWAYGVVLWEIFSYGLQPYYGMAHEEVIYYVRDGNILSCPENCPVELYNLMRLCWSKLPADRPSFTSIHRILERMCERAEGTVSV

[6] = biological target: Wee1-like protein kinase 2 (Homo sapiens) (UniProt P0C1S8); assay: Selectivity interaction (KinomeScan (DiscoverX)) EUB0000092b WEE2; details: at 10 µM
Wee1-like protein kinase 2 (Homo sapiens), sequence (P0C1S8 whole entry, looked up): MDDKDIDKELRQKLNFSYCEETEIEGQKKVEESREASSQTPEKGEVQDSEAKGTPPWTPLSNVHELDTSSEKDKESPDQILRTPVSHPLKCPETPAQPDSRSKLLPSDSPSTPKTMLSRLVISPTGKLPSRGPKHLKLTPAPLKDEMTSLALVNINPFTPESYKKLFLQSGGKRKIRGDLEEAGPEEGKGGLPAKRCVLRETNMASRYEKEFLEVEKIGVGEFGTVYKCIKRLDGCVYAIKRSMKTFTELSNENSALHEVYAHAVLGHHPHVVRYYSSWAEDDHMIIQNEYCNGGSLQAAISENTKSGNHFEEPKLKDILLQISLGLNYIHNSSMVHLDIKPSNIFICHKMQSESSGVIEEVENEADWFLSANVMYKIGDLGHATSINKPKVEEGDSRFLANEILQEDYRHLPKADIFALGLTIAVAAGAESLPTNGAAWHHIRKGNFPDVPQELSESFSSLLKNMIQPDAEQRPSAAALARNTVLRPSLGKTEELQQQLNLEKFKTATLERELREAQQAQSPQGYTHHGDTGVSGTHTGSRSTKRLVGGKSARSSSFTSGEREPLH

[7] = biological target: Ribosomal protein S6 kinase alpha-5 (Homo sapiens) (UniProt O75582); assay: Selectivity interaction (Upstate Kinase Profiler service (Millipore)) EUB0000056c RPS6KA5; details: at 1 µM
Ribosomal protein S6 kinase alpha-5 (Homo sapiens), sequence (O75582 whole entry, looked up): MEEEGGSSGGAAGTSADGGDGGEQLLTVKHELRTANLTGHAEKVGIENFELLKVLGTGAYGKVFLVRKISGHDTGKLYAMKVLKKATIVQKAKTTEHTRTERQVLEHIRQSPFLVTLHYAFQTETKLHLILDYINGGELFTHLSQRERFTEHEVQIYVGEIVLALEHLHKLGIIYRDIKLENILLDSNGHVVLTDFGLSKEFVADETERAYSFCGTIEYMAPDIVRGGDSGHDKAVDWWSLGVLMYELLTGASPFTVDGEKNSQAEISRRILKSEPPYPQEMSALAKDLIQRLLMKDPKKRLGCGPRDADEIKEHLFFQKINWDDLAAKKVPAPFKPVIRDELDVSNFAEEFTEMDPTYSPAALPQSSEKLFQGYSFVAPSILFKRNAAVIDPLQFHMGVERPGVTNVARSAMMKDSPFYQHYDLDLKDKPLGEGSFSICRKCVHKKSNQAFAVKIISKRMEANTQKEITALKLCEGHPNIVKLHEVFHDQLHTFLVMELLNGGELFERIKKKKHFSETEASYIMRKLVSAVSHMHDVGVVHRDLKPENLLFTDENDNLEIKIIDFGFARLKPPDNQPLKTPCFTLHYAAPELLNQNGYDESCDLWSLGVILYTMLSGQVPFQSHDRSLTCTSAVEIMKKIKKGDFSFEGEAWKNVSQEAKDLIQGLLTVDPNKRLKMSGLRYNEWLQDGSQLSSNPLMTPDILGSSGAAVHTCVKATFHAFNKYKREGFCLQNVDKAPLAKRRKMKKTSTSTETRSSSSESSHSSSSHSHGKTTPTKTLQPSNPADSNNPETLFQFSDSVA

[8] = biological target: Death-associated protein kinase 1 (Homo sapiens, UniProt P53355); assay: Selectivity interaction (KinomeScan (DiscoverX)) EUB0000655a DAPK1; details: at 10 µM
Death-associated protein kinase 1, sequence (P53355 whole entry, looked up): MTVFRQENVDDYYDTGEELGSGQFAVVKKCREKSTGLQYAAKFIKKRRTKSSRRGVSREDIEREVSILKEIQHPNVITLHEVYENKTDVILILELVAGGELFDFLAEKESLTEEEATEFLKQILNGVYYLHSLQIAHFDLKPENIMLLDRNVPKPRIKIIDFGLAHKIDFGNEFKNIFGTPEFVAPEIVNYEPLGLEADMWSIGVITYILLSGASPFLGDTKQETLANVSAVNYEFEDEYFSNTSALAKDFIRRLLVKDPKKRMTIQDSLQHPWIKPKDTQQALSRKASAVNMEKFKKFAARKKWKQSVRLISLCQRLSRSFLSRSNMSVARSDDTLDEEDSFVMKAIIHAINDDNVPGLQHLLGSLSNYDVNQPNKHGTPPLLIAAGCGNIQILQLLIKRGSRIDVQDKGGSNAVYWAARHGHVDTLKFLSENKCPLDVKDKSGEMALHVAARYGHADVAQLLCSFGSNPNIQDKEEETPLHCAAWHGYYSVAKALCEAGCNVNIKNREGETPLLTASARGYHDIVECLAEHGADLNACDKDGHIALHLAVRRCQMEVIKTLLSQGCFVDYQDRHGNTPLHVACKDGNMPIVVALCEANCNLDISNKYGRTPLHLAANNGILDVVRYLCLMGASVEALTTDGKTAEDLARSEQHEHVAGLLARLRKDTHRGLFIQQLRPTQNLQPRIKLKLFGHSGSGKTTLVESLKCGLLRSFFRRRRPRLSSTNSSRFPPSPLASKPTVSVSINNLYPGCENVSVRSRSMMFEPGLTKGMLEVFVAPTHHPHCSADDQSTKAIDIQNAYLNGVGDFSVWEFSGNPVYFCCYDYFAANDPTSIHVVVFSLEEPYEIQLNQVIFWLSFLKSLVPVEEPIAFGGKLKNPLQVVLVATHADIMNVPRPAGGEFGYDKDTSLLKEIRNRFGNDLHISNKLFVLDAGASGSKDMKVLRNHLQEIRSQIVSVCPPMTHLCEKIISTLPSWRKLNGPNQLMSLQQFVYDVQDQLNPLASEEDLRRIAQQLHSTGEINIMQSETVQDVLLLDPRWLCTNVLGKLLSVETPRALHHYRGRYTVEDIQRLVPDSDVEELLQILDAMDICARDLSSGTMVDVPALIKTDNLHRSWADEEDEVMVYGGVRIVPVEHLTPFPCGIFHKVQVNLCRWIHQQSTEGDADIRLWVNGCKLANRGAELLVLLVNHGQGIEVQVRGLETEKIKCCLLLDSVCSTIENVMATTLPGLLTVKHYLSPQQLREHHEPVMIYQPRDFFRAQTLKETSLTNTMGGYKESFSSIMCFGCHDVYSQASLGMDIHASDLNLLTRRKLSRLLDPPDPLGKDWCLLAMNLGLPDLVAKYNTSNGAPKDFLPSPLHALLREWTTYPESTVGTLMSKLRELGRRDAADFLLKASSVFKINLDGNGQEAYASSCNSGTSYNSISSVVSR

[9] = biological target: Ribosomal protein S6 kinase alpha-3 (Homo sapiens, UniProt P51812); assay: Selectivity interaction (ActivX KiNativ screen (ex vivo kinase selectivity in human PBMCs)) EUB0001619a RPS6KA3; type: cell-based; details: PBMC, at 1 µM
Ribosomal protein S6 kinase alpha-3, sequence (P51812 whole entry): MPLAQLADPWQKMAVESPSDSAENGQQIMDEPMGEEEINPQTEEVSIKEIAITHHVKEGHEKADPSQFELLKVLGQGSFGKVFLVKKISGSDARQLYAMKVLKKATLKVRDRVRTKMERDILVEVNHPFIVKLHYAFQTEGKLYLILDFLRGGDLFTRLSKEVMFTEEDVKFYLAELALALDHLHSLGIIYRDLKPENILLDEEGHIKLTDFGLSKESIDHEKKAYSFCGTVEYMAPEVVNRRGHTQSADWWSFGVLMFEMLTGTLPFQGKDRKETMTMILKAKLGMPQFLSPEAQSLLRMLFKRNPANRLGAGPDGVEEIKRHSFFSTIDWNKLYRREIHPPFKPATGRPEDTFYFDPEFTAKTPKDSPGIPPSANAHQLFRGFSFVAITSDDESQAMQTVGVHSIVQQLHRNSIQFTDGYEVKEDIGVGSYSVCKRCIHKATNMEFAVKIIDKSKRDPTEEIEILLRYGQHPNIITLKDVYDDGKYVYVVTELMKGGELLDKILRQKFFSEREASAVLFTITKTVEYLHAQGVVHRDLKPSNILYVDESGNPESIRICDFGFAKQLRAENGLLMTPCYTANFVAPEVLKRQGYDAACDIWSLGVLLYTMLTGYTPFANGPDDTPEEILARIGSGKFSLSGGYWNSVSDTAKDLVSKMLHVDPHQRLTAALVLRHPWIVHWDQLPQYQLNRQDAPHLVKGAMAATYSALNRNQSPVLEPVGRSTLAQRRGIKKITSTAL

[10] = biological target: STE20/SPS1-related proline-alanine-rich protein kinase (Homo sapiens) (UniProt Q9UEW8); assay: Selectivity interaction (KinomeScan (DiscoverX)) EUB0001619a STK39; details: at 1 µM
[11] = biological target: Tyrosine-protein kinase SYK (Homo sapiens, UniProt P43405); assay: Selectivity interaction (ActivX KiNativ screen (ex vivo kinase selectivity in human PBMCs)) EUB0001619a SYK; type: cell-based; details: PBMC, at 1 µM
[12] = biological target: Casein kinase I isoform delta (Homo sapiens, UniProt P48730); assay: Selectivity interaction (KinomeScan (DiscoverX)) EUB0000618a CSNK1D; details: at 10 µM
Casein kinase I isoform delta, sequence (P48730 whole entry, looked up, canonical isoform): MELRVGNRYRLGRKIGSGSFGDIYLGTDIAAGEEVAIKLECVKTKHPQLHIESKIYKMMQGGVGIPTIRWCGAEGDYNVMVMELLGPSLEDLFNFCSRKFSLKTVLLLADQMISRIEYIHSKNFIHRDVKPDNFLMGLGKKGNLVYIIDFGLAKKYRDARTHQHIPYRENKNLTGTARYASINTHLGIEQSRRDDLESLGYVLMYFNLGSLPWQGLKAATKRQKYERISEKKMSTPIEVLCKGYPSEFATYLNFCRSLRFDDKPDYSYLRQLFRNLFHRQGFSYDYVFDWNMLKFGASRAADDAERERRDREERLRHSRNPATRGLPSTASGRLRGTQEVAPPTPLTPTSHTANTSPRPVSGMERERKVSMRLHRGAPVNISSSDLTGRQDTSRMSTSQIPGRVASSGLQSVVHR

% of inhibition [1]: 4.92%
SMILES: CC[C@@H]1[C@H](F)C(=O)N[C@@H]1COc1nccc2cc(C(N)=O)c(OC)cc12 [ZIMLOVISERTIB]

IC50 [2]: > 10 µM
SMILES: CCC(=O)N1CC[C@H](Nc2ncnc3c2CN(c2cnc(OC)c(C(F)(F)F)c2)CC3)C1 [LENIOLISIB]

% of activity ([3]; at 1 µM): 95.7% | % of activity ([3]; at 10 µM): 98.3%
SMILES: Cc1cc(C)cc([C@H]2c3cc(C)ccc3NC(=O)CN2C(=O)c2ccc(Br)s2)c1

SMILES: COCC(=O)NC/C=C/c1ccc2ncnc(Nc3ccc(Oc4ccc(C)nc4)c(C)c3)c2c1 [CP-724714]
% of control [4]: 100%

SMILES: COc1cc(N(C)c2ccnc3ccc(C(F)(F)F)cc23)cc(OC)c1OC
% binding [5]: 81%

SMILES: CCC(=O)N1CCN(c2ccc(-n3c(=O)ccc4cnc5ccc(-c6cnc7ccccc7c6)cc5c43)cc2C(F)(F)F)CC1
% of control [6]: 100%

% of inhibition [7]: -9%
SMILES: Cc1ccc(-c2ccc3c(ccc4sc5c(c43)NC[C@@H](C)NC5=O)n2)cn1

SMILES: CN(C)CCOc1ccc(-c2nc(-c3ccncc3)c(-c3ccc4c(c3)CC/C4=N\O)[nH]2)cc1
% of control [8]: 99%

SMILES: N#Cc1cccc(-c2c[nH]c3ncnc(N4CCOCC4)c23)c1
% of inhibition [9]: 10% | % of control [10]: 92% | % of inhibition [11]: 7%

SMILES: O[C@H]1CC[C@H](Nc2ncc3nc(Nc4c(F)cc(F)cc4F)n([C@H]4CCOC4)c3n2)CC1
% of control [12]: 83%
